# Source: US12220437B2, “Oncolytic virus improved in safety and anticancer effect” (BIONOXX INC., priority 2017, dated 2025)
# How the values were obtained:
# NCI-H460 cells = experiment: Annexin V/PI staining, flow cytometry (FACS); format: cell-based, human
# Procedure: (§1) In addition, the apoptosis and necrosis according to the combined administration of OTS-412 and GCV were confirmed by flow cytometry (FACS). Specifically, A549 and NCI-H460 cell lines were treated with GCV alone, OTS-412 alone, or a combination of OTS-412 and GCV, respectively, and the cells were subjected to Annexin V/PI staining followed by flow cytometry. At this time, the viability of cell was determined based on the facts that: both Annexin V and PI are negative in living cells; Annexin V is positive in the early stage of apoptosis, wherein the permeability of cell membrane changes; and both Annexin V and PI are positive at the end of apoptosis, wherein the nucleus is exposed by destruction of the cell membrane.
# A549 cells = experiment: Annexin V/PI staining, flow cytometry (FACS); format: cell-based, human
# Procedure: as §1
compound,measurement,setting,value
"Nc1nc2c(ncn2COC(CO)CO)c(=O)[nH]1 [GCV, ganciclovir]",apoptosis rate,NCI-H460 cells,not confirmed
same,apoptosis rate,A549 cells,not confirmed
